According to patent publication EP0385952A2, “Use of a naphthalenmethanamino derivative as antiinflammatory agent and pharmaceutical compositions containing it” (SANDOZ AG, priority 1989, dated 1990):
Read-outs that look alike come from different tables or passages of the source.

Assays:
[1] = system: human cell line Mono-Mac-6; experiment: LPS-induced NAP1/IL-8, αTNF- and IL-1β-mRNA accumulation (RNA blotting); type: cell-based
Protocol: Human Mono-Mac-6 cells, which have many of the phenotypic and functional characteristics of mature peripheral blood monocytes [H. Ziegler et al, Int. J. Cancer 41 (1988) 456-461] are grown up to 10⁶ cells/ml im RPMI 1640 medium supplemented with 10 % FCS, 1 % pen/strep and 0.25 % amphotericin. In each of 6 activation experiments 10⁷ cells are incubated for 4 hours at 37°C and 5 % CO₂. LPS is used in a concentration of 1 µg/ml and the test substance in concentrations of 10⁻⁵ M to 10⁻⁷ M.
After induction times the cells are pelleted [5 min, 1200 rpm, room temperature]. Total cellular RNA is extracted from the pelleted cells using the guanidinium isothiocyanate/cesium chloride method of J.M. Chirgwin et al., Biochemistry 18 (1979) 5294-5299. 10 µg samples of the extracted RNA are size-fractionated by 1.2 % formaldehyde agarose gel electrophoresis [T. Maniatis et al., Molecular Cloning: A Laboratory Manual, Cold Spring Harbour, New York (1982) p. 187-206], transferred to synthetic membranes (Hybond N, Amersham) with 20xSSC (1xSSC is 150 mM NaCl, 15 mM sodium citrate, pH 7.0) overnight. The filters are baked for 2 hours at 65°C and prehybridized for 4 hours at 65°C in 5xSSC, 10x Denhardt's solution (1x Denhardt's solution is 0.02 % bovine serum albumin, 0.02 % polyvinyl pyrrolidone, 0.02 % ficoll), 10 % dextrane sulphate, 20 mM sodium phosphate pH 7.0, 7 % SDS, 100 µg/ml sonicated salmon sperm DNA, and 100 µg/ml polyA. ³²P-labelled synthetic NAP1/IL8, αTNF and IL-1β oligonucleotide probes are used as the hybridization probes. Hybridization is performed at 65°C in the pre-hybridization buffer containing the labelled probe for 16 hours. The blots are washed once in 5 % SDS, 3xSSC, 10x Denhardt's solution, 20 mM sodium phosphate pH 7.0 for 30 minutes at 65°C, and once in 1xSSC, 1 % SDS at 65°C for 30 minutes. Filters are exposed at -70°C to KODAK XAR-5 films using intensifying screens. After washing for 30 minutes in 0.1 % SDS at 65°C, blots are reused for a second hybridization with a β-actin specific oligonucleotide probe to quantitate the mRNA amounts.

human keratinocytes = experiment: Inhibition of TPA-stimulated PGE₂ synthesis of human keratinocytes; type: cell-based; details: Keratinocyte, TPA 100 ng/ml, 24 hours, read-out: IC₅₀, inhibition of TPA-stimulated PGE₂ synthesis
Protocol: Cultures of human keratinocytes are obtained by trypsinisation of neonatal human foreskins. The keratinocyte cultures are grown in a supplemented keratinocyte growth medium (KGM; Clonetics) using culture flasks. Passages 3-5 of 80-90 % confluent keratinocytes are resuspended in KGM at a concentration of 1x10⁵ cells/ml and 0.1 ml are plated into 96 well-microtiter plates in the presence of test compound. For the stimulation of PGE₂ release human keratinocytes or the HACAT human skin keratinocyte cell line [P. Boukamp et al., J. Cell Biol. 106 (1988) 761-771] are grown to confluence in KGM medium and stimulated with TPA (100 ng/ml) for 24 hours. Conditioned media are centrifuged and concentrations of PGE₂ are determined using a ¹²⁵I radioimmunoassay (NEN, Boston, Mass.). Each sample is assayed in duplicate.

HACAT cell line = experiment: Modulation of keratinocyte gene expression and NAP1/IL-8 protein release; type: cell-based, human; details: for inhibition at 10 µM: Homo sapiens, HaCaT, ELISA
Protocol: The HACAT cell line is grown in 200 ml culture flasks in KGM medium (Clonetics) at 0.06 mM Ca until 50 % confluency. Thereafter cells are starved in KBM medium (Clonetics) for 2 days. The resulting preconfluent cells are then stimulated with αTNF (Genzyme, 500 or 1000 U/ml) or IL-1α (Boehringer, 200 U/ml) obtained from stock solutions and further diluted in KBM medium for the indicated times in the presence of test substance. At the end of the incubation period total cellular RNA is extracted as described above under 1.1.5. 20 µg RNA is run on 1 % formaldehyde agarose gels and transferred onto hybond N filters (Amersham) in a northern capillary transfer using 20xSSC. The filters are then baked for 2 hours and prehybridized for 4 hours. Hybridization (16 hours) and washing are performed at 65°C using oligonucleotide probes for NAP1/IL-8. For control, blots are rehybridised with an actin probe (Oncor). Concentrations of NAP1/IL-8 in the supernatants of the keratinocyte cultures are determined using a solid phase double ligand ELISA.

Solubility in water = type: physicochemical; details: at 25°C
[2] = remaining level, 10.0 µM, LPS 1 µg/ml, 4 hours

CN(C/C=C/c1ccc(O)cc1)Cc1cccc2ccccc12 [compound of the invention, (E)-N-methyl-N-[3-(4-hydroxyphenyl)-2-propenyl]-1-naphthalene-methanamine]
concentration inhibiting lps-induced transcription of nap-1/il-8, αtnf and il-iβ ([1]; mono-mac 6 cell line, summary statement): about 10 µm
LPS-induced IL-1β-mRNA accumulation decreased to [1, 2]: 50%
LPS-induced NAP1/IL-8-mRNA accumulation decreased to [1, 2]: 20%
LPS-induced αTNF-mRNA accumulation decreased to [1, 2]: 10%
IC50 (human keratinocytes): 1000 to 3000 nM
inhibition at 10 µM (HACAT cell line; read-out: inhibition of IL-1α-stimulated release of NAP1/IL-8): 40%
inhibition at 10 µM (HACAT cell line; read-out: inhibition of αTNF-stimulated release of NAP1/IL-8): 90%
αTNF-induced NAP1/IL-8 mRNA accumulation decreased to (HACAT cell line; remaining level, 20.0 µM): 60%
solubility (Solubility in water): < 100 µg/mL
